Some test systems named below: SF-268; 786-0; SW-620; IGROV-1; MOLT-4; DU-145; SF-539; RXF 393; HCT-116; KM12; A498; PC-3; SK-MEL-5; HOP-92; COLO 205; SK-MEL-2; OVCAR-4; OVCAR-8; UO-31; NCI-H522.
Common to all, as to assay: inhibition of tumour cell growth, NCI panel, 48 h

The structures appear in SMILES notation.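 Where inhibition never reached the appropriate level, the endpoint shown equals the highest concentration tested. Otherwise, values were interpolated linearly from a five-concentration, 48-hour dose response in 96-well plates. The concentration for 50% growth inhibition is given as GI50.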 Calls of active or inactive are those of the source. No stated cut-off is given here; in the data, active = GI50 up to about 1.1 µM and inactive = higher.

Regarding `C[C@@H]1OC2(O)[C@@H]3CCCN3C(=O)N(Cc3ccccc3)N2C1=O` (stereo partly specified), the GI50 in the assay on SF-268, in the assay with 786-0, with SW-620, in the assay with IGROV-1, with MOLT-4 and with DU-145 was > 100 µM (inactive) throughout. Moreover, the GI50 in the assay with SF-539, with RXF 393, with HCT-116, in the assay with KM12, in the assay with A498 and with PC-3 was > 100 µM (inactive) throughout. Further, the GI50 in the assay on SK-MEL-5, in the assay on HOP-92, with COLO 205, with SK-MEL-2, in the assay with OVCAR-4 and in the assay on OVCAR-8 was > 100 µM (inactive) throughout.
Take `CC1C[C@]2(C)C(=S)Nc3ccccc3[C@@H]2Nc2ccccc21` (stereo partly specified): the GI50 in the assay on SF-268 was 1.11 µM (active); with 786-0, 16.3 µM (inactive); in the assay with SW-620 it was 25.9 µM (inactive); in the assay with UO-31, 18.7 µM (inactive); in the assay with IGROV-1, 18.3 µM (inactive); with MOLT-4, 17.5 µM (inactive). The GI50 in the assay with DU-145 is 4 µM (inactive); with SF-539, 19.3 µM (inactive); in the assay on RXF 393, 19 µM (inactive); in the assay with HCT-116 it was 12.6 µM (inactive); in the assay on KM12, 15.5 µM (inactive); with A498 it was 21.5 µM (inactive). Besides, the GI50 was 15.4 µM (inactive) in the assay on PC-3; 17.7 µM (inactive) in the assay on SK-MEL-5; 12.2 µM (inactive) in the assay with HOP-92; 14.2 µM (inactive) in the assay on COLO 205; 13 µM (inactive) with SK-MEL-2; 17.8 µM (inactive) with OVCAR-4. Further, in the assay on OVCAR-8, the GI50 was 15.9 µM (inactive).
Turning to `Nc1n[n+](CC(=O)c2ccccc2)c2sc(-c3ccccc3)nn12`, the GI50 was 18.8 µM (inactive) with SF-268; > 100 µM (inactive) with 786-0; 36.8 µM (inactive) with SW-620; 79.3 µM (inactive) in the assay on UO-31; 95.5 µM (inactive) in the assay on NCI-H522; > 100 µM (inactive) with IGROV-1. Also, the GI50 was 90.6 µM (inactive) in the assay on MOLT-4; > 100 µM (inactive) in the assay with DU-145; 74.8 µM (inactive) in the assay with SF-539; > 100 µM (inactive) in the assay with RXF 393; 44.2 µM (inactive) in the assay on HCT-116; 46.1 µM (inactive) in the assay with KM12. The GI50 is > 100 µM (inactive) in the assay on A498; 73.8 µM (inactive) with PC-3; 48.6 µM (inactive) in the assay with SK-MEL-5; > 100 µM (inactive) with COLO 205; > 100 µM (inactive) in the assay on SK-MEL-2; > 100 µM (inactive) in the assay on OVCAR-4. Moreover, in the assay with OVCAR-8, the GI50 is 78.2 µM (inactive).
On to `Nc1ccccc1.O=P(O)(O)c1ccccc1`, for which the GI50 with SF-268, in the assay with 786-0, in the assay with SW-620, with UO-31, in the assay with NCI-H522 and in the assay with IGROV-1 was > 100 µM (inactive) throughout. The GI50 with DU-145, in the assay on RXF 393, in the assay with HCT-116, with KM12, in the assay with A498 and with PC-3 was > 100 µM (inactive) throughout. Also, the GI50 with SK-MEL-5, in the assay with HOP-92, in the assay on COLO 205, in the assay with SK-MEL-2, with OVCAR-4 and with OVCAR-8 was > 100 µM (inactive) throughout.
Consider `N=c1c2c(ncn1N)Oc1c(c(-c3ccccc3)nn1-c1ccccc1)C2c1ccc(Cl)cc1` (stereo unspecified), for which the GI50 is 1.71 µM (inactive) in the assay with SF-268; 1.63 µM (inactive) with 786-0; 1.75 µM (inactive) with SW-620; 1.64 µM (inactive) with UO-31; 1.43 µM (inactive) in the assay with IGROV-1; 0.895 µM (active) with MOLT-4. The GI50 is 2.01 µM (inactive) with DU-145; 1.18 µM (inactive) in the assay on SF-539; 1.47 µM (inactive) in the assay with RXF 393; 1.49 µM (inactive) in the assay on HCT-116; 1.6 µM (inactive) in the assay on KM12; 1.86 µM (inactive) with A498. Also, the GI50 in the assay with PC-3 was 1.63 µM (inactive); in the assay with HOP-92 it was 1.71 µM (inactive); with COLO 205, 0.508 µM (active); with SK-MEL-2, 1.69 µM (inactive); in the assay on OVCAR-4, 1.56 µM (inactive); in the assay on OVCAR-8, 1.95 µM (inactive).
For the compound `CC#Cc1cc2c(cc1O)CC[C@@H]1[C@@H]2CC[C@]2(C)[C@@H](O)CC[C@@H]12`, the GI50 in the assay on SF-268 was 3.59 µM (inactive); in the assay on 786-0 it was 1.58 µM (inactive); with SW-620, 0.655 µM (active); in the assay with UO-31, 9.23 µM (inactive); in the assay on NCI-H522, 0.289 µM (active); in the assay with IGROV-1, 4.54 µM (inactive). Moreover, the GI50 with MOLT-4 is 0.621 µM (active); in the assay on DU-145, 3.43 µM (inactive); with RXF 393, 2.45 µM (inactive); in the assay with KM12, 3.08 µM (inactive); in the assay on A498, 5.28 µM (inactive); with PC-3, 3.92 µM (inactive). Moreover, the GI50 with SK-MEL-5 is 0.484 µM (active); in the assay on HOP-92, 11.8 µM (inactive); in the assay with COLO 205, 17.7 µM (inactive); in the assay with SK-MEL-2, 1.06 µM (active); in the assay with OVCAR-4, 12.8 µM (inactive); with OVCAR-8, 2.09 µM (inactive).
With `CCn1nc2c3c(ncn3C(C)(C)O2)c1=O`, the GI50 with SF-268, with 786-0, in the assay with SW-620, in the assay on UO-31, with NCI-H522 and in the assay on IGROV-1 was > 100 µM (inactive) in each case. In addition, the GI50 with MOLT-4, in the assay with DU-145, with RXF 393, in the assay with HCT-116, with KM12 and with A498 was > 100 µM (inactive) in each case. The GI50 with PC-3, in the assay on SK-MEL-5, with HOP-92, in the assay with COLO 205, in the assay with SK-MEL-2 and with OVCAR-4 was > 100 µM (inactive) each time.
Take `O=C1/C(=C/c2ccc(Br)s2)NC(=S)N1CN1CCCCC1`: the GI50 with SF-268 is 39.4 µM (inactive); with 786-0, 36.4 µM (inactive); in the assay on SW-620, 33 µM (inactive); in the assay on UO-31, 24.5 µM (inactive); with NCI-H522, 23.3 µM (inactive); with IGROV-1, 42.1 µM (inactive). Also, the GI50 in the assay with MOLT-4 is 23.4 µM (inactive); in the assay with DU-145, 38.1 µM (inactive); in the assay with RXF 393, 21.1 µM (inactive); in the assay on HCT-116, 31 µM (inactive); in the assay with KM12, 35.6 µM (inactive); in the assay on A498, 22.9 µM (inactive). In addition, the GI50 in the assay with PC-3 was 28.2 µM (inactive); in the assay with SK-MEL-5, 0.317 µM (active); in the assay with COLO 205, 18.1 µM (inactive); in the assay with SK-MEL-2, 0.678 µM (active); in the assay with OVCAR-4, 36.8 µM (inactive); in the assay with OVCAR-8, 33.3 µM (inactive).
For the compound `CC1=NN(c2nc(N)nc(CS(C)(=O)=O)n2)C(C)(C)C1`, the GI50 in the assay on SF-268, with 786-0, in the assay with SW-620, in the assay on UO-31, in the assay with IGROV-1 and in the assay with MOLT-4 was > 100 µM (inactive) each time. Also, the GI50 with DU-145, in the assay on SF-539, in the assay with RXF 393, in the assay on HCT-116, in the assay with KM12 and in the assay with A498 was > 100 µM (inactive) in each case. In addition, the GI50 in the assay on PC-3, in the assay with SK-MEL-5, in the assay on HOP-92, in the assay with COLO 205, in the assay on SK-MEL-2 and in the assay with OVCAR-4 was > 100 µM (inactive) throughout. Besides, the GI50 in the assay on OVCAR-8 was > 100 µM (inactive).
Take `COC(=O)C1(C(=O)OC)N=C(C)OC1c1ccccn1` (stereo unspecified): the GI50 in the assay with 786-0, in the assay with SW-620, in the assay on UO-31, in the assay on IGROV-1, in the assay on MOLT-4 and with DU-145 was > 100 µM (inactive) throughout. Moreover, the GI50 in the assay with RXF 393, with HCT-116, with KM12, in the assay on A498, with PC-3 and with SK-MEL-5 was > 100 µM (inactive) in each case. Besides, the GI50 with HOP-92, in the assay on COLO 205, in the assay with SK-MEL-2, with OVCAR-4 and in the assay with OVCAR-8 was > 100 µM (inactive) throughout.
For `Nc1nc(NCC2(CO)CCC2)cc(=O)[nH]1`, the GI50 in the assay with SF-268, in the assay with 786-0, with SW-620, in the assay on UO-31, in the assay on NCI-H522 and in the assay on IGROV-1 was > 100 µM (inactive) throughout. The GI50 in the assay on MOLT-4, with DU-145, in the assay with RXF 393, in the assay on HCT-116, with KM12 and in the assay with A498 was > 100 µM (inactive) throughout. For the same compound, the GI50 in the assay with PC-3, in the assay with SK-MEL-5, in the assay on HOP-92, in the assay with COLO 205, in the assay on SK-MEL-2 and in the assay with OVCAR-4 was > 100 µM (inactive) each time. Further, the GI50 in the assay on OVCAR-8 is > 100 µM (inactive).

The values are drawn from ChEMBL document CHEMBL1201862, “PubChem BioAssay data set” (2004).
